{"source": "patent US20200239530A1", "about": "“COMPOUNDS AND METHODS OF MODULATING PROTEIN DEGRADATION” (Vividion Therapeutics, Inc., priority 2017, published 2020)", "assay_in_all_cases": "Cysteine liganding, probe competition", "format_in_all_cases": "binding", "key": {"[1]": {"molecular_target": "T1, B-cell lymphoma 6 protein (BCL6) (Homo sapiens, UniProt P41182)", "T1 construct": "Cells were resuspended in cold PBS on ice and sonicated with a probe sonicator to achieve lysis; endogenous in cells", "outline": "(§1)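 Probe competition in native proteome: 5 mg/ml lysate, compound 1 hr 25° C, then desthiobiotin iodoacetamide (10 mM stock) 1 hr 25° C; acetone ppt, urea/DTT reduction, iodoacetamide alkylation, trypsin, streptavidin pull-down.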"}, "[2]": {"molecular_target": "T2, TNF receptor-associated factor 6 (TRAF6) (Homo sapiens, UniProt Q9Y4K3)", "T2 construct": "Cells were resuspended in cold PBS on ice and sonicated with a probe sonicator to achieve lysis; endogenous in cells", "T2 sequence (Q9Y4K3 whole entry)": "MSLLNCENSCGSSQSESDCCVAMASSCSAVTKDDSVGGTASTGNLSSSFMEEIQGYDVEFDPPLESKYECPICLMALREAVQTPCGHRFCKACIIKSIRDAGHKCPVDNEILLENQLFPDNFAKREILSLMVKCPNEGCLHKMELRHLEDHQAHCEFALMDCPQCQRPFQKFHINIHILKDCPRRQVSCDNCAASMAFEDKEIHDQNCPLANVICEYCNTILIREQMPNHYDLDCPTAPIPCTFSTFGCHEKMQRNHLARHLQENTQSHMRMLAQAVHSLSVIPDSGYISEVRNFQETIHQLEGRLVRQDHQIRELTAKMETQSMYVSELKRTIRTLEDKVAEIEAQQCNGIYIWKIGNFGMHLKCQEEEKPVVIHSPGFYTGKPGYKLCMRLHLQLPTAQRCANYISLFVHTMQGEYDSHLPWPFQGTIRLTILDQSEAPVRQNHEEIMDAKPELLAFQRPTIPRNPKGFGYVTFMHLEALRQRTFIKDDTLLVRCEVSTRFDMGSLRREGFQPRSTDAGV", "conditions": "read-out: percent_inhibition", "outline": "as §1"}, "[3]": {"molecular_target": "T3, VDAC2 Voltage-dependent anion-selective channel protein (Homo sapiens, UniProt P45880)", "T3 construct": "Cells were resuspended in cold PBS on ice and sonicated with a probe sonicator to achieve lysis; endogenous in cells", "T3 sequence (P45880 whole entry)": "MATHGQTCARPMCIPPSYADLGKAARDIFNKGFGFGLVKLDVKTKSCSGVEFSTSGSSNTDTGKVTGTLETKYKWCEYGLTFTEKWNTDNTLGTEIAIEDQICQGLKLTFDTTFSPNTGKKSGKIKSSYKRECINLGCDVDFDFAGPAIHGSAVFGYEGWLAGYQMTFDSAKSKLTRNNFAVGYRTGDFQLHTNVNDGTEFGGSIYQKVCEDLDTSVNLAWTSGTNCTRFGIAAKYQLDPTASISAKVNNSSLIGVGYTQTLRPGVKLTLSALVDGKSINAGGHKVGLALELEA", "outline": "as §1"}, "[4]": {"molecular_target": "T4, TRIP12 E3 ubiquitin-protein ligase TRIP12 (Homo sapiens, UniProt Q14669)", "T4 construct": "Cells were resuspended in cold PBS on ice and sonicated with a probe sonicator to achieve lysis; endogenous in cells", "conditions": "TRIP12 Res# 1959, uniprot Q14669", "outline": "as §1"}, "[5]": {"molecular_target": "T5, ZC3HC1 Nuclear-interacting partner of ALK (Homo sapiens, UniProt Q86WB0)", "T5 construct": "Cells were resuspended in cold PBS on ice and sonicated with a probe sonicator to achieve lysis; endogenous in cells", "conditions": "ZC3HC1 Res# 406, uniprot Q86WB0", "outline": "as §1"}, "[6]": {"molecular_target": "T6, L3MBTL3 Lethal(3)malignant brain tumor-like protein 3 (Homo sapiens, UniProt Q96JM7)", "T6 construct": "Cells were resuspended in cold PBS on ice and sonicated with a probe sonicator to achieve lysis; endogenous in cells", "T6 sequence (Q96JM7 whole entry)": "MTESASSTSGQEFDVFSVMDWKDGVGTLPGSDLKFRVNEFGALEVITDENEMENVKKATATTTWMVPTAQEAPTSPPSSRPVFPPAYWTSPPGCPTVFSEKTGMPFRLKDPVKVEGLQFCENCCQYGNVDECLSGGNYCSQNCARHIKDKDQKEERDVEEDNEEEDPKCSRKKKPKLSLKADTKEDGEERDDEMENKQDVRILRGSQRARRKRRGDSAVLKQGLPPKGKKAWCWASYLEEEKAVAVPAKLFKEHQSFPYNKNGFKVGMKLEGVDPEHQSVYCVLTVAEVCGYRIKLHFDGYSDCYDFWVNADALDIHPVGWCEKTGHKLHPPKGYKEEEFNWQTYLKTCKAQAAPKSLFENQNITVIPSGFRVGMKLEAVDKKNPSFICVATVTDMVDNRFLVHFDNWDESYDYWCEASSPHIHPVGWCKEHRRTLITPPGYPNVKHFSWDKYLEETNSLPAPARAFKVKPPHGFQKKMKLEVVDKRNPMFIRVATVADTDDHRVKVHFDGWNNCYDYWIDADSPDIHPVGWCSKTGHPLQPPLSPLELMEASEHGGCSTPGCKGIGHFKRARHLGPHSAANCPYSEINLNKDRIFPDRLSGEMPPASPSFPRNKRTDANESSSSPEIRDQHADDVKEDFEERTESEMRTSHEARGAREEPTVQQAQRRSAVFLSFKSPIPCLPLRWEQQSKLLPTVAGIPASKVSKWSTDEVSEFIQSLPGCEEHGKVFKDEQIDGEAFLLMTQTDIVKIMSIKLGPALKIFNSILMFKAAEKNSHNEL", "conditions": "L3MBTL3 Res# 233, uniprot Q96JM7", "outline": "as §1"}, "[7]": {"molecular_target": "T7, MYCBP2 E3 ubiquitin-protein ligase MYCBP2 (Homo sapiens, UniProt O75592)", "T7 construct": "Cells were resuspended in cold PBS on ice and sonicated with a probe sonicator to achieve lysis; endogenous in cells", "outline": "as §1"}, "[8]": {"molecular_target": "T8, VDAC3 Voltage-dependent anion-selective channel protein (Homo sapiens, UniProt Q9Y277)", "T8 construct": "Cells were resuspended in cold PBS on ice and sonicated with a probe sonicator to achieve lysis; endogenous in cells", "T8 sequence (Q9Y277 whole entry)": "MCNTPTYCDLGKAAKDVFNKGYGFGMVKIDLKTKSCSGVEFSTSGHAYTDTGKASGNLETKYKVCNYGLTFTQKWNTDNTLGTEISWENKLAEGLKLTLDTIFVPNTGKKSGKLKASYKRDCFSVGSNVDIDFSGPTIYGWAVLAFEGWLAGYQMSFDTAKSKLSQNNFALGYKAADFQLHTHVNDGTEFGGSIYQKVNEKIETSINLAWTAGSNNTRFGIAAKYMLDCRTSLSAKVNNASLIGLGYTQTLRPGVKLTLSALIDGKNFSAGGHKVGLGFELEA", "conditions": "VDAC3 Res# 229, uniprot Q9Y277", "outline": "as §1"}, "[9]": {"molecular_target": "T9, SPAG5 Sperm-associated antigen 5 (Homo sapiens, UniProt Q96R06)", "T9 construct": "Cells were resuspended in cold PBS on ice and sonicated with a probe sonicator to achieve lysis; endogenous in cells", "conditions": "SPAG5 Res# 382, uniprot Q96R06", "outline": "as §1"}, "[10]": {"molecular_target": "T10, SRRM2 Serine/arginine repetitive matrix protein 2 (Homo sapiens, UniProt Q9UQ35)", "T10 construct": "Cells were resuspended in cold PBS on ice and sonicated with a probe sonicator to achieve lysis; endogenous in cells", "outline": "as §1"}, "[11]": {"molecular_target": "T11, HNRPLL Heterogeneous nuclear ribonucleoprotein L-like (Homo sapiens, UniProt Q8WVV9)", "T11 construct": "Cells were resuspended in cold PBS on ice and sonicated with a probe sonicator to achieve lysis; endogenous in cells", "T11 sequence (Q8WVV9 whole entry)": "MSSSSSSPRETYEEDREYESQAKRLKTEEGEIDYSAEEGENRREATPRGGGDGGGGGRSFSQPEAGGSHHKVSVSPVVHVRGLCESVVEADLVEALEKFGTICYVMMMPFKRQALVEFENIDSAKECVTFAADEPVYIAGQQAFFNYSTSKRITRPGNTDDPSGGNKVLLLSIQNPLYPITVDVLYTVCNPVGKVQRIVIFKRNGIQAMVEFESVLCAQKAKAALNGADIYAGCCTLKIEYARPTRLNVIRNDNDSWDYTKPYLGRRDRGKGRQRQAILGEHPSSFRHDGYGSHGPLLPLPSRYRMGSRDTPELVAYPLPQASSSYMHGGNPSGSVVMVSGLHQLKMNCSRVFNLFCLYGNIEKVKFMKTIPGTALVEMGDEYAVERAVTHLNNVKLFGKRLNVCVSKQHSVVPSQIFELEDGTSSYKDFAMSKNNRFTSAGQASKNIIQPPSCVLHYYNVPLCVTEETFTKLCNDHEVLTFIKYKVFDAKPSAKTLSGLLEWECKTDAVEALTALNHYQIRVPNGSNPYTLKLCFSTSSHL", "conditions": "HNRPLL Res# 464, uniprot Q8WVV9", "outline": "as §1"}, "[12]": {"molecular_target": "T12, CTSC Dipeptidyl peptidase 1 (Homo sapiens, UniProt P53634)", "T12 construct": "200 μL of lysate containing 5 mg/ml proteome was treated with 2 μL of 100× compound stock; endogenous in cells", "T12 sequence (P53634 25-463)": "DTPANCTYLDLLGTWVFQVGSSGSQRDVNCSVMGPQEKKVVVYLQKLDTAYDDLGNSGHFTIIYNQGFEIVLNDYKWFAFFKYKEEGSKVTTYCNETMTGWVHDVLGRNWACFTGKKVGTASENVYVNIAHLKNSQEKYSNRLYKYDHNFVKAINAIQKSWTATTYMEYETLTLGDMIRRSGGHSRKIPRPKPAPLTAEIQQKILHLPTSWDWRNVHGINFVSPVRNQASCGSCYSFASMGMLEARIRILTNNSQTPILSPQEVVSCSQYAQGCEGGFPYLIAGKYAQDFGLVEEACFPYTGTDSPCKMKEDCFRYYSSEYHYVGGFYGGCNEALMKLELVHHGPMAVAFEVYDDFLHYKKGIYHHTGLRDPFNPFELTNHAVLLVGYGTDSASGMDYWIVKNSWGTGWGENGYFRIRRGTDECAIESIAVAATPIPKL", "outline": "as §1"}, "[13]": {"molecular_target": "T13, INTS1 Integrator complex subunit 1 (Homo sapiens, UniProt Q8N201)", "T13 construct": "Cells were resuspended in cold PBS on ice and sonicated with a probe sonicator to achieve lysis; endogenous in cells", "T13 sequence (Q8N201 whole entry, one chain of several)": "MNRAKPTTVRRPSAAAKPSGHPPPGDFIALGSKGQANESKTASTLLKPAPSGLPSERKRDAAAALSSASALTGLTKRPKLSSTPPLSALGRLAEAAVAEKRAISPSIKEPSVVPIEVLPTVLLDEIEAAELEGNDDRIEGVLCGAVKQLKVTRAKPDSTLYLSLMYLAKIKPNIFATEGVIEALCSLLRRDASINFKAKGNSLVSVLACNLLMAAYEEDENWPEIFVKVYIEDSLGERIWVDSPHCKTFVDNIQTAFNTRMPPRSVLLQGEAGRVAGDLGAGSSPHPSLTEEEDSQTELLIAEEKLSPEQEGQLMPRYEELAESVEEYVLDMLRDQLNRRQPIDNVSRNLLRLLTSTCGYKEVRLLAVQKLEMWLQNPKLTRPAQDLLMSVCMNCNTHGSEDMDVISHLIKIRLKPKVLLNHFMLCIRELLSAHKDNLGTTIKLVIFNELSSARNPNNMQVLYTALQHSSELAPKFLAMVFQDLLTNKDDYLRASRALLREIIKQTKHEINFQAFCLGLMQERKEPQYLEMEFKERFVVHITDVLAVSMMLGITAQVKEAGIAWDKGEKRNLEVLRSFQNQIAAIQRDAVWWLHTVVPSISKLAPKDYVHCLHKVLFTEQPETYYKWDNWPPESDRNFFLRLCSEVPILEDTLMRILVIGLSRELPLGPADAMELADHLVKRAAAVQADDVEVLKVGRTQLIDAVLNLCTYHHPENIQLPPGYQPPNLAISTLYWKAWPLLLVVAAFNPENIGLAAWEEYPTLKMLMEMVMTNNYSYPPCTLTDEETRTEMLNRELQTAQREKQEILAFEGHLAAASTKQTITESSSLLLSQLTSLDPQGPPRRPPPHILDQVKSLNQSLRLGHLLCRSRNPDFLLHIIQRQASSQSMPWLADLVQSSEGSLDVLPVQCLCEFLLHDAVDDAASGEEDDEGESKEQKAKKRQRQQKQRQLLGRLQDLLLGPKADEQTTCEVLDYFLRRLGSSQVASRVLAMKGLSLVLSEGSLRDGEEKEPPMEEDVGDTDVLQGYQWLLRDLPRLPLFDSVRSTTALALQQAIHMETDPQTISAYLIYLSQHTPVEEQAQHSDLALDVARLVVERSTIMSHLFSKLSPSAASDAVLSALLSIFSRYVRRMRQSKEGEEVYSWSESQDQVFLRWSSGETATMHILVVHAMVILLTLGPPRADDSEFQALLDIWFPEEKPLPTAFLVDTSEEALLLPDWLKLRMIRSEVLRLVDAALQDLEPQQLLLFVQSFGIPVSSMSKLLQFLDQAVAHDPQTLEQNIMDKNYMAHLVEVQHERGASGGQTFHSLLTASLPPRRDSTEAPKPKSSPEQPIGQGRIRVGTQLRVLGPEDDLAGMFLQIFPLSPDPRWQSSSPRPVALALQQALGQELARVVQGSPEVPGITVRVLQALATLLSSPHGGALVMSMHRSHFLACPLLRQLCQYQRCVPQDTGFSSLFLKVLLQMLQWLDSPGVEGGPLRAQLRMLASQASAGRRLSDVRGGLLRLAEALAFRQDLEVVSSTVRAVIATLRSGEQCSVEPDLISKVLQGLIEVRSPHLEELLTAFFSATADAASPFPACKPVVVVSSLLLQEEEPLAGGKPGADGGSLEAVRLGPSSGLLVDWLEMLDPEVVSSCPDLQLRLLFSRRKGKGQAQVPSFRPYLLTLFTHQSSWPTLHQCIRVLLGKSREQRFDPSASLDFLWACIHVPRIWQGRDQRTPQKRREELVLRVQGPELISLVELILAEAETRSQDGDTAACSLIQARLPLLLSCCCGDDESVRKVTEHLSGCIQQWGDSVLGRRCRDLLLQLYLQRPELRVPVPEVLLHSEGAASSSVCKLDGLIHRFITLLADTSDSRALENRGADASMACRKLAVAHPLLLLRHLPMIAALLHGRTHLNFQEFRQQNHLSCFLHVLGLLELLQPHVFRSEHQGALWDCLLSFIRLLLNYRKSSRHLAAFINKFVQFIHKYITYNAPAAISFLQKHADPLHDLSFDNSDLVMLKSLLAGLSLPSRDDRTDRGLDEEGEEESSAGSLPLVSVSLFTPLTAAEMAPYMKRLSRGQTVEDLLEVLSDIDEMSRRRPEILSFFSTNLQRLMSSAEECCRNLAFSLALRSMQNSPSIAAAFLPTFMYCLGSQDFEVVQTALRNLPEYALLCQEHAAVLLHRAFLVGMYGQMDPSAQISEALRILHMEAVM", "outline": "as §1"}}}
{"smiles": "C=CC(=O)N(c1ccccc1)c1ccc(Br)cc1", "note": "[KB05]", "values": [{"measurement": "KB05_100 uM_percent_inhibition", "setting": "[1]; 100 uM", "result": 7, "unit": "%"}, {"measurement": "inhibition at 100 µM", "setting": "[1]; read-out: KB05_100 uM_percent_inhibition", "result": 9, "unit": "%"}, {"measurement": "inhibition at 500 µM", "setting": "[2]", "result": 31, "unit": "%"}]}
{"smiles": "COc1ccc2c(c1)CCCN2C(=O)CCl", "note": "[KB02]", "values": [{"measurement": "Liganded", "setting": "[3]; VDAC2 Res# 210, uniprot P45880", "result": "YES"}, {"measurement": "Liganded", "setting": "[3]; VDAC2 Res# 227, uniprot P45880", "result": "YES"}, {"measurement": "Liganded", "setting": "[4]", "result": "YES"}, {"measurement": "Liganded", "setting": "[5]", "result": "YES"}, {"measurement": "Liganded", "setting": "[6]", "result": "YES"}, {"measurement": "Liganded", "setting": "[7]; MYCBP2 Res# 1131, uniprot O75592", "result": "YES"}, {"measurement": "Liganded", "setting": "[7]; MYCBP2 Res# 3152, uniprot O75592", "result": "YES"}, {"measurement": "Liganded", "setting": "[8]", "result": "YES"}, {"measurement": "Liganded", "setting": "[9]", "result": "YES"}, {"measurement": "Liganded", "setting": "[10]; SRRM2 Res# 1029, uniprot Q9UQ35", "result": "YES"}, {"measurement": "Liganded", "setting": "[10]; SRRM2 Res# 1036, uniprot Q9UQ35", "result": "YES"}, {"measurement": "Liganded", "setting": "[11]", "result": "YES"}]}
{"smiles": "O=C(CCl)Nc1cc(C(F)(F)F)cc(C(F)(F)F)c1", "note": "[KBO3]", "values": [{"measurement": "Liganded", "setting": "[12]; CTSC Res# 258, uniprot P53634", "result": "YES"}, {"measurement": "100 Max", "setting": "[12]; uniprot P53634", "result": 76.05}, {"measurement": "100 ave", "setting": "[12]; uniprot P53634", "result": 76.05}, {"measurement": "500 Max", "setting": "[12]; uniprot P53634", "result": 95.44}, {"measurement": "500 ave", "setting": "[12]; uniprot P53634", "result": 95.44}, {"measurement": "Liganded", "setting": "[13]; INTS1 Res# 1534, uniprot Q8N201", "result": "YES"}, {"measurement": "100 Max", "setting": "[13]; uniprot Q8N201", "result": 51.25}, {"measurement": "100 ave", "setting": "[13]; uniprot Q8N201", "result": 36.495}, {"measurement": "500 Max", "setting": "[13]; uniprot Q8N201", "result": 77.65}, {"measurement": "500 ave", "setting": "[13]; uniprot Q8N201", "result": 70.05}]}
